Measurements as given in patent US4822804A, “5,6,7,-trinor-4,8-inter-m-phenylene 2-nor PGI2 derivatives and anti-ulcer, anti-thrombotic and anti-hypertensive pharmaceutical compositions containing them” (Toray Industries, Inc., priority 1981, dated 1989).
Values after ≈ are worked out from the molar mass of the structure shown. Values belong to the compound of their own block, whether it stands above or below them.

Columns and labels:
[1] = system: platelet rich plasma; assay: Anti-aggregatory effect in platelet rich plasma (Born's method; arachidonic acid, ADP and collagen); format: cell-based; settings: PRP of man or rabbit, ADP, collagen
[2] = Arterial blood pressure of anesthetized rats, intravenous injection; format: in vivo; settings: rat, i.v., pentobarbital anesthesia
Description: Under pentobarbital anesthesia (50 mg/kg s.c.), a catheter was inserted into the carotid artery. The blood pressure was measured via a pressure transducer on a polygraph.

[3] = Diarrhoea inducing action, subcutaneous; format: in vivo; settings: up to the dose of 3 mg/kg, rat
[4] = system: gastric mucous membrane; assay: Protection against gastric mucous membrane lesion due to alcohol (Robert's method); format: in vivo; settings: rat, oral
Description: Gastric cytoprotection was measured according to the method of Robert et al (Gastroenterol 77, 433-443, 1979). The rats fasted overnight and were given a necrotizing agent (0.2N NaOH 1 ml/rat (Method A) or Absolute EtOH (Method B)) and killed one hour later for the examination of gastric lesions. The test drug was administered 30 minutes before the necrotizing agent. The length of the lesion was measured and expressed in terms of the ulcer index. The effect of the drug was expressed in terms of the inhibition rate against the ulcer index of a control animal.

[5] = system: gastric juice secretion; assay: Gastric juice secretion inhibition (Shay's method), subcutaneous; format: in vivo
[6] = system: Human Platelet; assay: Human platelet aggregation inhibiting activity (aggregating agent ADP); format: cell-based; settings: human platelet rich plasma, read-out: ID50, human platelet aggregation inhibiting activity
Description: Blood was collected from healthy volunteers using a disposable syringe containing 3.8% sodium citrate from the saphnous vein. The blood was centrifuged for 10 minutes at 160×g. The resultant supernatant liquid was used as platelet rich plasma (PRP). Aggregation was induced by […] ADP (Adenosine diphosphate). The inhibition rate was calculated against a control aggregation of 100%.
ED50 (effective dose 50) is defined as the dosage required to produce a response in 50% of the subjects to whom the compound is given.

[7] = neutral aqueous solution; cited from earlier work
[8] = as recognized in prostaglandin E1 and E2; cited from earlier work

Compound: CCCCCCC(O)C#CC1C(O)CC2Oc3c(CCCC(=O)O)cccc3C21 (stereo not drawn) [Compound 6, 5,6,7,-trinor-4,8-inter-m-phenylene-13,14-didehydro-20-methyl-PGI2]
anti-aggregatory effect compared with prostaglandin E1 [1]: comparable or stronger anti-aggregatory effect
blood pressure reducing activity relative to prostaglandin E1 [2]: 1-2 times
duration of blood pressure reducing activity compared with prostaglandin E1 [2]: more prolonged duration
diarrhoea inducing action [3]: do not exhibit the diarrhoea inducing actions

Compound: O=C(O)/C=C/Cc1cccc2c1O[C@H]1C[C@@H](O)[C@H](/C=C/[C@@H](O)c3ccccc3)[C@@H]21 (relative stereo) [Compound 97, 5,6,7-trinor-4,8-inter-m-phenylene-2,3-dehydro-16,17,18,19,20-pentanor-15-phenyl-PGI2]
anti-aggregatory effect compared with prostaglandin E1 [1]: comparable or stronger anti-aggregatory effect
blood pressure reducing activity relative to prostaglandin E1 [2]: 1-2 times
duration of blood pressure reducing activity compared with prostaglandin E1 [2]: more prolonged duration
gastric mucous membrane protecting activity relative to prostaglandin E2 [4]: 0.3-1 times
effective dose relative to the dose of prostaglandin E2, gastric juice secretion inhibition [5]: 0.1-0.3 times
diarrhoea inducing action [3]: do not exhibit the diarrhoea inducing actions

IC50 [6]: 0.49 µg/mL (≈ 1.25 µM)
Compound: CCCOC[C@H](O)/C=C/[C@@H]1[C@H]2c3cccc(CCCC(=O)O)c3O[C@H]2C[C@H]1O (relative stereo) [Compound 66, 5,6,7-trinor-4,8-inter-m-phenylene-17,18,19,20-tertranor-16-propoxy PGI.su b.2]

Compound: O=C(O)CCCc1cccc2c1OC1CC(O)C(C#CC(O)C3CCCCC3)C21 (stereo not drawn) [Compound 9, 5,6,7,-trinor-4,8-inter-m-phenylene-13,14-didehydro-15-cyclohexyl-16,17,18,19,20-pentanor PGI2]
anti-aggregatory effect compared with prostaglandin E1 [1]: comparable or stronger anti-aggregatory effect
blood pressure reducing activity relative to prostaglandin E1 [2]: 1-2 times
duration of blood pressure reducing activity compared with prostaglandin E1 [2]: more prolonged duration
diarrhoea inducing action [3]: do not exhibit the diarrhoea inducing actions

Compound: CCCCC(C)C[C@H](O)/C=C/[C@@H]1[C@H]2c3cccc(CCCC(=O)O)c3O[C@H]2C[C@H]1O (stereo partly drawn) [Compound 55, 5,6,7-trinor-4,8-inter-m-phenylene-17-α-methyl-20-homo PGI2]
anti-aggregatory effect compared with prostaglandin E1 [1]: comparable or stronger anti-aggregatory effect
blood pressure reducing activity relative to prostaglandin E1 [2]: 1-2 times
duration of blood pressure reducing activity compared with prostaglandin E1 [2]: more prolonged duration
diarrhoea inducing action [3]: do not exhibit the diarrhoea inducing actions

Compound: CCCCC[C@H](O)/C=C/[C@@H]1[C@H]2C/C(=C/CCCC(=O)O)O[C@H]2C[C@H]1O [PGI2, Prostaglandin I2]
stability in aqueous solution [7]: very unstable even in a neutral aqueous solution

Compound: CCCC(C)CC(O)C=CC1C(O)CC2Oc3c(CCCC(=O)O)cccc3C21 (stereo not drawn) [Compound 49, 5,6,7-trinor-4,8-inter-m-phenylene-17-β-methyl PGI2]
anti-aggregatory effect compared with prostaglandin E1 [1]: comparable or stronger anti-aggregatory effect
blood pressure reducing activity relative to prostaglandin E1 [2]: 1-2 times
duration of blood pressure reducing activity compared with prostaglandin E1 [2]: more prolonged duration
diarrhoea inducing action [3]: do not exhibit the diarrhoea inducing actions

IC50 [6]: 0.011 µg/mL (≈ 0.0283 µM)
Compound: CCCCC(C)[C@H](O)/C=C/[C@@H]1[C@H]2c3cccc(CCC(=O)O)c3O[C@H]2C[C@H]1O (stereo partly drawn) [5,6,7-trinor-4,8-inter-m-phenylene-2-nor-16-methyl PGI2]

IC50 [6]: 0.031 µg/mL (≈ 0.077 µM)
Compound: CCCCC(C)[C@H](O)/C=C/[C@@H]1[C@H]2c3cccc(CCCC(=O)O)c3O[C@H]2C[C@H]1O (stereo partly drawn) [5,6,7-trinor-4,8-inter-m-phenylene-16-methyl PGI2]

IC50 [6]: 0.048 µg/mL (≈ 0.128 µM)
Compound: CCCOC[C@H](O)/C=C/[C@@H]1[C@H]2c3cccc(CCC(=O)O)c3O[C@H]2C[C@H]1O (relative stereo) [5,6,7-trinor-4,8-inter-m-phenylene-2,17,18,19,20-pentanor-16-propoxy PGI2]

IC50 [6]: 0.0006 µg/mL (≈ 0.00154 µM)
Compound: CCC[C@H](C)C[C@H](O)/C=C/[C@@H]1[C@H]2c3cccc(CCC(=O)O)c3O[C@H]2C[C@H]1O [5,6,7-trinor-4,8-inter-m-phenylene-2-nor-17(S)-methyl PGI2]

Compound: 5,6,7-trinor-4,9-inter-m-phenylene-17,18,19,20-tetranor-16-m-chlorophenoxy PGI2 [Compound 65]
effective dose in inhibiting gastric juice secretion [5]: 0.3 to 1 mg/kg
effective dose relative to the dose of prostaglandin E2, gastric juice secretion inhibition [5]: 0.1-0.3 times

IC50 [6]: 0.005 µg/mL (≈ 0.0124 µM)
Compound: CCC[C@H](C)C[C@H](O)/C=C/[C@@H]1[C@H]2c3cccc(CCCC(=O)O)c3O[C@H]2C[C@H]1O [5,6,7-trinor-4,8-inter-m-phenylene-17(S)-methyl PGI2]

Compound: CCCCC[C@H](O)/C=C/[C@H]1[C@H](O)CC(=O)[C@@H]1C/C=C\CCCC(=O)O [prostaglandin E2]
diarrhoea inducing action of reference prostaglandins [8]: diarrhoea inducing actions recognized

Compound: O=C(O)CCCc1cccc2c1O[C@H]1C[C@@H](O)[C@H](/C=C/[C@@H](O)COc3ccccc3)[C@@H]21 (relative stereo) [Compound 60, 5,6,7-trinor-4,8-inter-m-phenylene-17,18,19,20-tetranor-16-phenoxy PGI2]
effective dose relative to the dose of prostaglandin E2, gastric juice secretion inhibition [5]: 0.1-0.3 times

Compound: CCOCC(C)(C)[C@H](O)/C=C/[C@@H]1[C@H]2c3cccc(CCCC(=O)O)c3O[C@H]2C[C@H]1O (relative stereo) [Compound 76, 5,6,7-trinor-4,8-inter-m-phenylene-16,16-dimethyl-18,19,20-trinor-17-ethoxyPGI2]
gastric mucous membrane protecting activity relative to prostaglandin E2 [4]: 0.3-1 times
effective dose relative to the dose of prostaglandin E2, gastric juice secretion inhibition [5]: 0.1-0.3 times

Compound: CCCC(C)C[C@H](O)/C=C/[C@@H]1[C@H]2c3cccc(CCCC(=O)O)c3O[C@H]2C[C@H]1O (stereo partly drawn) [Compound 48, 5,6,7-trinor-4,8-inter-m-phenylene-17-α-methyl PGI2]
anti-aggregatory effect compared with prostaglandin E1 [1]: comparable or stronger anti-aggregatory effect
blood pressure reducing activity relative to prostaglandin E1 [2]: 1-2 times
duration of blood pressure reducing activity compared with prostaglandin E1 [2]: more prolonged duration
diarrhoea inducing action [3]: do not exhibit the diarrhoea inducing actions

Compound: COC(=O)CCCc1cccc2c1O[C@H]1C[C@@H](O)[C@H](C#CC(O)c3ccccc3)[C@@H]21 (stereo partly drawn) [Compound 19, 5,6,7-trinor-4,8-inter-m-phenylene-13,14-didehydro-15-phenyl-16,17,18,19,20-pentanor PGI2 methyl ester]
anti-aggregatory effect compared with prostaglandin E1 [1]: comparable or stronger anti-aggregatory effect
blood pressure reducing activity relative to prostaglandin E1 [2]: 1-2 times
duration of blood pressure reducing activity compared with prostaglandin E1 [2]: more prolonged duration
gastric mucous membrane protecting activity relative to prostaglandin E2 [4]: 0.3-1 times
effective dose relative to the dose of prostaglandin E2, gastric juice secretion inhibition [5]: 0.1-0.3 times
diarrhoea inducing action [3]: do not exhibit the diarrhoea inducing actions
